Test results as given in ChEMBL document CHEMBL3991601, “The target landscape of clinical kinase drugs” (Science, 2017).
Structures can show the parent of a compound that is named as a salt. Activity calls are given as the source filed them. For most assays here, no stated cut-off is given here; in the data, actives have a measured Kd and inactives only a lower limit.

Legend:
[1] = molecular target: Cyclin-dependent kinase 13 (Homo sapiens, UniProt Q14004)
Wee1-like protein kinase = Wee1-like protein kinase (Homo sapiens, UniProt P30291)
[2] = molecular target: T1, Exosome RNA helicase MTR4 (Homo sapiens, UniProt P42285)
T1 sequence (P42285 whole entry): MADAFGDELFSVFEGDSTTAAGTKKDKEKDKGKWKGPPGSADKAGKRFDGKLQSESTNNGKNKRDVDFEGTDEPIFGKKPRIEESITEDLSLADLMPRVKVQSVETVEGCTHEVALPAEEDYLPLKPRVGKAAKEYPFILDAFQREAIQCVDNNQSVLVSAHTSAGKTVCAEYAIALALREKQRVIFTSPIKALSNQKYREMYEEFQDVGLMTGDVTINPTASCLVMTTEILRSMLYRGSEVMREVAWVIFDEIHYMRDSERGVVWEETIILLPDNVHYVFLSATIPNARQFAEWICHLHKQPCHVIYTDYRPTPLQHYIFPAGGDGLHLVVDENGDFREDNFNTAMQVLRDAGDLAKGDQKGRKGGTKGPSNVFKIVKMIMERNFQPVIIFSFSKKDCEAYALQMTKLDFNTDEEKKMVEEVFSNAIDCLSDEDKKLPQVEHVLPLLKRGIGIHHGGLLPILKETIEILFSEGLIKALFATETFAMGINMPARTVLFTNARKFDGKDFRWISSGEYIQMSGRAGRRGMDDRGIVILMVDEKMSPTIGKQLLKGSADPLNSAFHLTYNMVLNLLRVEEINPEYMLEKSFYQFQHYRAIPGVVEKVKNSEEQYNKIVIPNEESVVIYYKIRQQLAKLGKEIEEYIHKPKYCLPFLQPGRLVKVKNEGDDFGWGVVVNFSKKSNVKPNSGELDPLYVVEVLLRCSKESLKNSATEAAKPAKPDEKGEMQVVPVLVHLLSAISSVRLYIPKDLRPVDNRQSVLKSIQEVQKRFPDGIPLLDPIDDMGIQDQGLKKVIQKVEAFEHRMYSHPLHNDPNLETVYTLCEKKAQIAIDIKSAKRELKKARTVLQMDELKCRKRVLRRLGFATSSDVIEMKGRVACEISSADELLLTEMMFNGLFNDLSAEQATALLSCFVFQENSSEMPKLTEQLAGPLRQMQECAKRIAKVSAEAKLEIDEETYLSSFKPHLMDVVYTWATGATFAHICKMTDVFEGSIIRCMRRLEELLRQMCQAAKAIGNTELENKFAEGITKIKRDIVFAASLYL

[3] = molecular target: Ras-related protein Rab-6A (Homo sapiens, UniProt P20340)
[4] = molecular target: RAC-gamma serine/threonine-protein kinase (Homo sapiens, UniProt Q9Y243)
[5] = molecular target: Ribosomal protein S6 kinase alpha-6 (Homo sapiens, UniProt Q9UK32)
[6] = molecular target: Proto-oncogene tyrosine-protein kinase Src (Homo sapiens, UniProt P12931)
[7] = molecular target: T2, Phenylalanine--tRNA ligase beta subunit (Homo sapiens, UniProt Q9NSD9)
T2 sequence (Q9NSD9 whole entry): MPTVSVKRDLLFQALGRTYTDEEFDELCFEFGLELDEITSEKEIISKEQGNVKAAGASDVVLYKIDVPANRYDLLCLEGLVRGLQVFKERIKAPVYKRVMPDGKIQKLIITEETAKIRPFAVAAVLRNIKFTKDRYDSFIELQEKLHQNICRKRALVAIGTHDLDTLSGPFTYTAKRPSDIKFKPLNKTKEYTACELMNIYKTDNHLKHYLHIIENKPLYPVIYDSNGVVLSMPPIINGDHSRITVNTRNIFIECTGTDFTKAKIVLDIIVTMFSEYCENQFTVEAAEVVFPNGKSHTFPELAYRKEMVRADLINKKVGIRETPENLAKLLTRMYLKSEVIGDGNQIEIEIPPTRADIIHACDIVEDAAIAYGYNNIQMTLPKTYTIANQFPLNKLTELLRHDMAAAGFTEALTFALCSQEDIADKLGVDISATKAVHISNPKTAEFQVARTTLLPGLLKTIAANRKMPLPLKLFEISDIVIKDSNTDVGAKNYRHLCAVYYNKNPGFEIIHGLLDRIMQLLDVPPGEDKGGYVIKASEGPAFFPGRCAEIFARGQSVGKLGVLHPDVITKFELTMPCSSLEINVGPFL

Adenosine kinase = Adenosine kinase (Homo sapiens, UniProt P55263)
[8] = molecular target: T3, Serine/threonine-protein kinase TAO3 (Homo sapiens, UniProt Q9H2K8)
T3 sequence (Q9H2K8 whole entry): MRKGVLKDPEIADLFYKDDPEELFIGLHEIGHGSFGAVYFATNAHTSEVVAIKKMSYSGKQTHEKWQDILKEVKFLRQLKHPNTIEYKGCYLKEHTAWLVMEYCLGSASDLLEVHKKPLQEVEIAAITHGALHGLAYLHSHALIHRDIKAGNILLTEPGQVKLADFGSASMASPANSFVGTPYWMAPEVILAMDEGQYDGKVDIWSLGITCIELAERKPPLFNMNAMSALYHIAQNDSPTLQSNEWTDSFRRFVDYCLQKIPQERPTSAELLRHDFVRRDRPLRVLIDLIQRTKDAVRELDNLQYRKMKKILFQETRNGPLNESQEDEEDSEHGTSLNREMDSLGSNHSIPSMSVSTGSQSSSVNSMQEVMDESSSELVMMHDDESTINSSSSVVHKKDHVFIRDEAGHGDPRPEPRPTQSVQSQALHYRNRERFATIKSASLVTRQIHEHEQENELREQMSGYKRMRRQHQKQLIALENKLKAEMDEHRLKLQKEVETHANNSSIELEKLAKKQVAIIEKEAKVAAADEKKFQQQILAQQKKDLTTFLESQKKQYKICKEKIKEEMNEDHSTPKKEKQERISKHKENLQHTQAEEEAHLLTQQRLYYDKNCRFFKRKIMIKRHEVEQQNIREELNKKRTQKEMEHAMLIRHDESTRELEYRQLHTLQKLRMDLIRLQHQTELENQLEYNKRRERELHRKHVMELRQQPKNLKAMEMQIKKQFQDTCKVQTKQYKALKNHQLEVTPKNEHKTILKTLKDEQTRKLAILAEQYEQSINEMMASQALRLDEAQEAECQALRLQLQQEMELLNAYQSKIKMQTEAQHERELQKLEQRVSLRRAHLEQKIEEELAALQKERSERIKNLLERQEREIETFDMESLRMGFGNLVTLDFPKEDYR

[9] = molecular target: Protein kinase C alpha type (Homo sapiens, UniProt P17252)

Chain of Wee1-like protein kinase (P30291 whole entry): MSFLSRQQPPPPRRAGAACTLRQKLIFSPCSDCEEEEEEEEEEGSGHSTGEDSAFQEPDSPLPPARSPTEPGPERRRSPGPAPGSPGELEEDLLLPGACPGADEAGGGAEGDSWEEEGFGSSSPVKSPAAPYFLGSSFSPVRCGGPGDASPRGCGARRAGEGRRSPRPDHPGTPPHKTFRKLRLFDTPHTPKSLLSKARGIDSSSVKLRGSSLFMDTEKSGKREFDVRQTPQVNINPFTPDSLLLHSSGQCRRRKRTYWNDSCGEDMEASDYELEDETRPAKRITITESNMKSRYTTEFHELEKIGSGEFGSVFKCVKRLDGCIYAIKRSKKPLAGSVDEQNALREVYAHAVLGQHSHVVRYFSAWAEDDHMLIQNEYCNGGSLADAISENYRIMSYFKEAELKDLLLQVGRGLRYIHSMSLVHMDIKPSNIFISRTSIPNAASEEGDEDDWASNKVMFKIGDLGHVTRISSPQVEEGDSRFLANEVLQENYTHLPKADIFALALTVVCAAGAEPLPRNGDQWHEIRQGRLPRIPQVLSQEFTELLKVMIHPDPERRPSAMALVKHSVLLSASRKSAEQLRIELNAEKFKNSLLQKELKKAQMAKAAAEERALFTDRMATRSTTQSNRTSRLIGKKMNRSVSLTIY
Chain of Cyclin-dependent kinase 13 (Q14004 whole entry): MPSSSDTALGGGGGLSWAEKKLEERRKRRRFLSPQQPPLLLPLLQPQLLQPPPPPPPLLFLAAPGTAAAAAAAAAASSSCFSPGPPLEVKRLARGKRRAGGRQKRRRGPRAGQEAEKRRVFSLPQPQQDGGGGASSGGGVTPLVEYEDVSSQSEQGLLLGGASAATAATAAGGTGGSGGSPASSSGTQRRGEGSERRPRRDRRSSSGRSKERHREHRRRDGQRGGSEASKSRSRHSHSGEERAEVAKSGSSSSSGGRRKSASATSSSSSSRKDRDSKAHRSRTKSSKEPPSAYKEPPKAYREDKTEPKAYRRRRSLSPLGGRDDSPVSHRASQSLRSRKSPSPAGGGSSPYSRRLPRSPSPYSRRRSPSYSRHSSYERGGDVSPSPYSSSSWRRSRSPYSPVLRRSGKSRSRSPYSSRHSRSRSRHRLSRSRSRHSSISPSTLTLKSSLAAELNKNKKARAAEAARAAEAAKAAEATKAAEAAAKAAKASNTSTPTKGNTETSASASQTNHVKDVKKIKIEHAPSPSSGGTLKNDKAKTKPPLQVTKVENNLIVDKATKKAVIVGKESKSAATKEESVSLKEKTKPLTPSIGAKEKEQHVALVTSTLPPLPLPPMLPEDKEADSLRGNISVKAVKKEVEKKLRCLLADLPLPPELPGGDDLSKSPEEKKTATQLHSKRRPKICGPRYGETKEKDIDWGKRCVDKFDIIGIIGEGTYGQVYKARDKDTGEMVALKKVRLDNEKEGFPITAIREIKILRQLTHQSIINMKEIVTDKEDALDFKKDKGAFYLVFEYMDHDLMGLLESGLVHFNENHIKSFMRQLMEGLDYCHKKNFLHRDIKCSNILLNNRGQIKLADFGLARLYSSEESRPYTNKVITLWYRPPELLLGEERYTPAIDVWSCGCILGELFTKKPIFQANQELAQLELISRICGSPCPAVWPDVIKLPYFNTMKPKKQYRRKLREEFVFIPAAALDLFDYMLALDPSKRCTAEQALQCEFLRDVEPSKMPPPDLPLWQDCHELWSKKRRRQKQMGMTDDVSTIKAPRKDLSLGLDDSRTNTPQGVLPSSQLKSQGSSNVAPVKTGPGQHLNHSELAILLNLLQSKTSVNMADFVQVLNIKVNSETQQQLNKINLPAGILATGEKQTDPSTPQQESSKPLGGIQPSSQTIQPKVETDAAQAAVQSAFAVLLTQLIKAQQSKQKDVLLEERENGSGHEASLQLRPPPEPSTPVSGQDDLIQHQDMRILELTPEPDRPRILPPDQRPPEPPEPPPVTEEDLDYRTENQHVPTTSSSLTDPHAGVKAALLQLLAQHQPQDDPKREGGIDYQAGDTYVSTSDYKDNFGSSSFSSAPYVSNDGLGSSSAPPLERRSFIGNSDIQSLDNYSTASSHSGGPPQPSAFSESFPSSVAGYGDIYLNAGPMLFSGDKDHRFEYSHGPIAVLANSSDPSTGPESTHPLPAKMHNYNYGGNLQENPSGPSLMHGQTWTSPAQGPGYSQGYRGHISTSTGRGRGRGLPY
Chain of Proto-oncogene tyrosine-protein kinase Src (P12931 2-536 limits assumed): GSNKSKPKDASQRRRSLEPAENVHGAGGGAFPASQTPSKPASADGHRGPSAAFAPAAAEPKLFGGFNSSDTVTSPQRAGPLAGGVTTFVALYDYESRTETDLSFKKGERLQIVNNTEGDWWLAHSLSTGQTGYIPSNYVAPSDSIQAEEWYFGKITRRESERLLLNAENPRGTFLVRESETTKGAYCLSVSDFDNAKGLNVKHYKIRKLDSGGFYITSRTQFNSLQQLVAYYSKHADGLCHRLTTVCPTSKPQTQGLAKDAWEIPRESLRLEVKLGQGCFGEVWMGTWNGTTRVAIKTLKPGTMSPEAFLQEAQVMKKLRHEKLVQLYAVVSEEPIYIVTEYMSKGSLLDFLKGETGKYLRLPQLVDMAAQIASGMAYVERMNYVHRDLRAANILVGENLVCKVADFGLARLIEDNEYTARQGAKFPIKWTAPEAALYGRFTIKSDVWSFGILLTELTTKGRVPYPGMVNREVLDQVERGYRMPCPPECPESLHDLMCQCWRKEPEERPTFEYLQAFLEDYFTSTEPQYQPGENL
Chain of Adenosine kinase (P55263 whole entry): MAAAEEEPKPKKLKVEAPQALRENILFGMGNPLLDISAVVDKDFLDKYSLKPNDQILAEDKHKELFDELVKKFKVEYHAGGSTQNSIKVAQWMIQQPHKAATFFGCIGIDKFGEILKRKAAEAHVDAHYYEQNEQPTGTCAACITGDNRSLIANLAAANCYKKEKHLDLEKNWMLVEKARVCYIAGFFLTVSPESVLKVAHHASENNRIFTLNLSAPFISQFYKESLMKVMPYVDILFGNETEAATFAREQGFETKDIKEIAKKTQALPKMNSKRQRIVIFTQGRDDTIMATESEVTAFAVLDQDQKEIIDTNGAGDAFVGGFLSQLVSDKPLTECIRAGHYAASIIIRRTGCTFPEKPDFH
Chain of Ras-related protein Rab-6A (P20340 whole entry): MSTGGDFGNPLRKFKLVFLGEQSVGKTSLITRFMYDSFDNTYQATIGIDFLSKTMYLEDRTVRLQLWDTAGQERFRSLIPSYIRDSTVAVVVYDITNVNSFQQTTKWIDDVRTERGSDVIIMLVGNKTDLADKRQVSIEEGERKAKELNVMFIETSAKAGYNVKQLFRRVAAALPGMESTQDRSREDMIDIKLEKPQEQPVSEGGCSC
Chain of RAC-gamma serine/threonine-protein kinase (Q9Y243 whole entry): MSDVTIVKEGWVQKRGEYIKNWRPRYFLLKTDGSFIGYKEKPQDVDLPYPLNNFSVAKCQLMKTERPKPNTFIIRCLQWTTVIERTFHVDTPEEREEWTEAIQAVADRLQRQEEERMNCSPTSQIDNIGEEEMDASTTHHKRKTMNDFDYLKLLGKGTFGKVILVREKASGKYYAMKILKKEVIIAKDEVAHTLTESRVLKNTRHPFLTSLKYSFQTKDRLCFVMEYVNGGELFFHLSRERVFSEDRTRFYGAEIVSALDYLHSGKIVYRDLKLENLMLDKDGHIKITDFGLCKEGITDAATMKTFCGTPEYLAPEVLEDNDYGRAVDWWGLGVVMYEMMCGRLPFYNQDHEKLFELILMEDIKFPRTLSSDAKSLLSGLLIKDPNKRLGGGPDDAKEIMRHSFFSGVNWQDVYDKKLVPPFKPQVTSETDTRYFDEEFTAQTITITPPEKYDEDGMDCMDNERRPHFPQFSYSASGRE

Row | Kd [1] | Kd (Wee1-like protein kinase) | Kd [2] | Kd [3] | Kd [4] | Kd [5] | Kd [6] | Kd [7] | Kd [8] | Kd [9] | Compound | Kd (Adenosine kinase)
1 | > 30 µM (inactive) | > 30 µM (inactive) | > 30 µM (inactive) | > 30 µM (inactive) | > 30 µM (inactive) | > 30 µM (inactive) | 3.55 µM (active) | > 30 µM (inactive) | > 30 µM (inactive) | > 30 µM (inactive) | Nc1ncnc2c1c(-c1cccc(OCc3ccccc3)c1)cn2[C@H]1C[C@@H](CN2CCC2)C1 [AEW-541] | > 30 µM (inactive)
2 | – | > 30 µM (inactive) | > 30 µM (inactive) | > 30 µM (inactive) | 3.29 µM (active) | > 30 µM (inactive) | – | > 30 µM (inactive) | > 30 µM (inactive) | > 30 µM (inactive) | CCn1cc(-c2ccnc3[nH]c(-c4cccc(CN(C)C)c4)cc23)c(-c2ccc(NC(=O)N(C)C)cc2)n1 [GSK-1070916] | > 30 µM (inactive)
3 | > 30 µM (inactive) | > 30 µM (inactive) | > 30 µM (inactive) | > 30 µM (inactive) | > 30 µM (inactive) | > 30 µM (inactive) | 0.459 µM (active) | > 30 µM (inactive) | > 30 µM (inactive) | 2.28 µM (active) | CC(C)c1cc(CNc2nc(Nc3cc(C4CC4)[nH]n3)cc(N3CCN(C)CC3)n2)on1 [XL-228] | –

The remaining lines, values behind:

Row | Compound | Kd [1] | Kd (Wee1-like protein kinase) | Kd [2] | Kd [3] | Kd [4] | Kd [5] | Kd [6] | Kd [7] | Kd [8] | Kd [9] | Kd (Adenosine kinase)
4 | CC(=O)c1cnc2ccc(-c3cc(Cl)c(O)c(Cl)c3)nc2c1N[C@H]1CC[C@H](CN(C)C)CC1 | > 30 µM (inactive) | > 30 µM (inactive) | > 30 µM (inactive) | > 30 µM (inactive) | > 30 µM (inactive) | 0.057 µM (active) | > 30 µM (inactive) | > 30 µM (inactive) | 0.021 µM (active) | – | > 30 µM (inactive)
5 | C=CC(=O)N1CCC[C@H](n2c(=O)n(-c3ccc(Oc4ccccc4)cc3)c3c(N)ncnc32)C1 | > 30 µM (inactive) | > 30 µM (inactive) | > 30 µM (inactive) | – | > 30 µM (inactive) | > 30 µM (inactive) | 0.004 µM | > 30 µM (inactive) | > 30 µM (inactive) | > 30 µM (inactive) | > 30 µM (inactive)
6 | Cc1nc2cc(-c3nn(C(C)C)c4ncnc(N)c34)ccc2o1 | > 30 µM (inactive) | > 30 µM (inactive) | > 30 µM (inactive) | > 30 µM (inactive) | > 30 µM (inactive) | > 30 µM (inactive) | > 30 µM (inactive) | > 30 µM (inactive) | > 30 µM (inactive) | 21.8 µM (active) | > 30 µM (inactive)
7 | COCc1c(-c2ccc(NC(=O)Nc3cc(C(F)(F)F)ccc3F)c(F)c2)c2c(N)ncnn2c1CN1CCOCC1 | > 30 µM (inactive) | > 30 µM (inactive) | > 30 µM (inactive) | > 30 µM (inactive) | > 30 µM (inactive) | 2.69 µM (active) | > 30 µM (inactive) | > 30 µM (inactive) | > 30 µM (inactive) | > 30 µM (inactive) | > 30 µM (inactive)
8 | COc1cc([C@@H]2c3cc4c(cc3[C@H](O)[C@H]3COC(=O)[C@@H]23)OCO4)cc(OC)c1OC [AXL-1717] | – | > 30 µM (inactive) | > 30 µM (inactive) | > 30 µM (inactive) | > 30 µM (inactive) | > 30 µM (inactive) | > 30 µM (inactive) | > 30 µM (inactive) | > 30 µM (inactive) | > 30 µM (inactive) | > 30 µM (inactive)
9 | CCS(=O)(=O)N1CCN(c2ccc(Nc3ncc(C(N)=O)c(NC4CC4)n3)cc2)CC1 [Cerdulatinib Hydrochloride] | > 30 µM (inactive) | > 30 µM (inactive) | > 30 µM (inactive) | > 30 µM (inactive) | > 30 µM (inactive) | 0.455 µM (active) | > 30 µM (inactive) | > 30 µM (inactive) | 8.26 µM (active) | > 30 µM (inactive) | –
10 | Cc1nc2cc(-n3ncc(C(=O)c4cc5ccccc5[nH]4)c3N)ccc2[nH]1 [FGFR INHIBITOR DEBIO 1347] | > 30 µM (inactive) | > 30 µM (inactive) | > 30 µM (inactive) | > 30 µM (inactive) | > 30 µM (inactive) | > 30 µM (inactive) | > 30 µM (inactive) | > 30 µM (inactive) | > 30 µM (inactive) | > 30 µM (inactive) | –
11 | CCOc1cc2ncc(C#N)c(Nc3ccc(F)c(Cl)c3)c2cc1NC(=O)/C=C/CN(C)C [PELITINIB] | > 30 µM (inactive) | – | > 30 µM (inactive) | > 30 µM (inactive) | > 30 µM (inactive) | > 30 µM (inactive) | > 30 µM (inactive) | > 30 µM (inactive) | > 30 µM (inactive) | > 30 µM (inactive) | > 30 µM (inactive)
12 | CNC(=O)c1cc(Oc2ccc(NC(=O)Nc3cc(C(C)(C)C)nn3-c3ccc4ncccc4c3)c(F)c2)ccn1 [REBASTINIB] | > 30 µM (inactive) | > 30 µM (inactive) | > 30 µM (inactive) | > 30 µM (inactive) | > 30 µM (inactive) | > 30 µM (inactive) | – | > 30 µM (inactive) | 14.2 µM (active) | > 30 µM (inactive) | > 30 µM (inactive)
13 | CN1CCN(CCOc2cc(OC3CCOCC3)c3c(Nc4c(Cl)ccc5c4OCO5)ncnc3c2)CC1 [SARACATINIB] | > 30 µM (inactive) | > 30 µM (inactive) | > 30 µM (inactive) | > 30 µM (inactive) | > 30 µM (inactive) | > 30 µM (inactive) | – | > 30 µM (inactive) | > 30 µM (inactive) | > 30 µM (inactive) | > 30 µM (inactive)
